Data taken from US7410553B2, “Building construction felt paper with biocide/anti-microbial treatment” (Atlas Roofing Corporation, priority 2005, dated 2008).
Like-named read-outs stand apart in the source and are kept apart here. Marks after values point to notes of the source that are not given here.

Tests used:
Penicillium funiculosum = assay: Agar-Plate Test Method (modified ASTM G-21), radial mycelial growth on biocide-containing agar; type: cell-based
Experimental: (§1) Five biocides were chosen for a comparative evaluation for inhibition activity against three common mold fungi. The evaluation was performed at the Forest Research Labs of Mississippi State University in Starkville, Miss. (“MSU”) using a substantially modified version of ASTM G-21, termed the “The Agar-Plate Test Method”. This method provides a rapid screening test for the evaluation of biocides against a wide variety of microorganisms.
(§2) Five (5) biocide compositions (“biocides”) were evaluated using the Agar-Plate Test Method: (1) Microbe Shield, (2) Zinc Pyrithione (ZPT), (3) ortho-Phenyl Phenol, (4) Borogard ZB, and (5) a mixture evaluated of 50% Zinc Pyrithione with 50% Borogard ZB. These biocide compositions were added to autoclaved fungal media at different concentrations. […] Plugs of specific fungi were inoculated onto agar plates containing the different biocides/concentrations.
(§3) For terminology, “hypha” (singular) and “hyphae” (plural) is/are a loose network of delicate filaments in a fungus. […] (plus the adjective form “mycelial”) is/are the main part of fungus, consisting of the feeding and reproducing hyphae, that forms the body of a fungus. Radial growth of a mycelia is measured and plotted against concentration. A linear regression is run to estimate the biocide concentration that inhibits radial growth by 50%. This Inhibitory Concentration is called the IC50.
(§4) The five (5) different biocides that were involved in the comparative evaluations were tested at four (4) concentrations per biocide composition, plus a control (no biocide). The biocides were tested against three common mold fungi (Aspergillus niger, Cladosporium cladosporioides, and Penicillium funiculosum) with five (5) replicates for every treatment combination. The biocides that were tested and their concentrations were (1) Microbe Shield at 0, 3, 15, 75 and 375 ppm (“Parts Per Million”) ai (“Active Ingredient”); (2) Zinc Pyrithione at 0, 3, 15, 75 and 375 ppm ai; (3) ortho-Phenyl Phenol (“OPP”) at 0, 3, 15, 75 and 375 ppm ai; (4) Borogard ZB at 0, 10, 50, 250, and 1250 ppm ai; and (5) the 50:50 mixture of Zinc Pyrithione and Borogard ZB at 0, 1.5/5.0, 7.5/25, 37.5/125, and 187.5/625 ppm ai.
(§5) Stock concentrations of each biocide were dissolved or suspended in water or acetone (only OPP was dissolved in acetone) to a concentration that allowed 1 ml of stock to be added to 250 ml of media in order to provide the highest required biocide concentration. Stocks were diluted in a 5 fold series to match the concentrations required. For each biocide concentration, 250 ml of Sabouraund Dextrose Agar in water was autoclaved and then cooled to 50° C. Then 1 ml of the appropriate biocide concentration was added to each flask. Control flasks received 1 ml of water or acetone (for OPP). Media was mixed, dispensed into Petri dishes and allowed to cool. Each biocide test used 90 agar plates including controls.
(§6) A […] plug of agar was removed from every plate at the time of each study. A plug from an agar plate containing one of the fungi was inserted into the hole. The plug of fungi was taken from the leading edge of a fungal colony. Several plates of fungi were required for each study. The studies were grouped by fungi. The Cladosporium cladosporioides study began first; the Aspergillus niger study began next; and the Penicillium funiculosum study began last. Mycelial growth was measured for every plate in each study. Fast growing species were measured daily and slower growing species were measured every 2-3 days. All studies were carried for at least two weeks or until growth leveled out. Digital photographs were taken at different times during each fungal study.
(§7) The average for the five replicates of each biocide concentration was determined and the averages plotted as growth over time for each biocide.

[1] = system: Cladosporium cladosporioides; assay: as above; type: cell-based
Experimental: as §1, §2, §3, §4, §5, §6, §7

Aspergillus niger = assay: as above; type: cell-based; details: for IC50 (ppm) Aspergillus niger: linear regression of radial growth
Experimental: as §1, §2, §3, §4, §5, §6, §7

other molds = system: other molds
Description: (§8) As mentioned above, the example apparatus of FIG. 1 and any suitable biocide can be used for treating a nonwoven mat. Such biocides include but are not limited to those mentioned and evaluated, e.g., ZPT (zinc pyrithione), OPP (ortho-Phenyl Phenol), and Microbe Shield. […] A large number of differing levels of treatment were made and samples of each dosage rate retained.
(§9) In order to establish a range of dosage levels that might quantify their effectiveness, four (4) dosage levels were utilized: (a) 62-grams/MSF; (2) 86-grams/MSF; (3) 116-grams/MSF, and (4) 123-grams/MSF; plus a zero grams/MSF(0) control. The unit of measure: “per MSF” or per “Thousand Square Feet”, rather than a unit of weight; e.g., “per Ton”, is the most common unit of sale for many special nonwoven webs.
(§10) After the biocide was applied to the nonwoven web at the varying dosage levels, two different testing facilities were used to evaluate these samples: The Forest Research Labs of Mississippi State University (MSU), and the laboratory of Arch Chemicals, Inc. (“Arch”). MSU evaluated the treated samples for resistance to mold using testing procedures of, e.g., ASTM D 6329-98, “Standard Guide for Developing Methodology for Evaluating the Ability of Indoor Materials to Support Microbial Growth Using Static Environmental Chambers,” and Arch Chemicals utilized ASTM G 21-96 (Re-approved 2002), “Standard Practice for Determining Resistance of Synthetic Polymeric Materials to Fungi”, both from ASTM International, PA, USA.
(§11) The MSU testing used the fungus Stachybotrys chartarum, but allowed “other molds” to enter the chamber. The Stachybotrys chartarum (ATCC 9182) was grown on Potato Dextrose Agar (“PDA”) and Sabouraud Dextrose Agar and allowed to sporulate (i.e., produce spores). This procedure followed ASTM C 1338-00, Standard Test Method for Determining Fungi Resistance of Insulation Materials and Facings. ASTM International, PA., USA. The solution was adjusted with additional sterile water until a spore count of approximately 940,000 cells per ml was obtained. This solution was the inoculum. A portion of this solution was also plated onto PDA to confirm the viable cell count. In the test, the nonwoven felt pieces were laid out with their treated side up, and inoculated with the spore suspension by an atomizer (ASTM C 1338-00). The pieces were allowed to air dry for several hours before being placed into the static environmental chambers. There were five replicates for each sample set (62-grams/MSF; 86-grams/MSF; 116-grams/MSF, and 123-grams/MSF; plus a zero (0) control) for each sampling period (2 weeks, 4 weeks, and 6 weeks).
(§12) The numbers in Table 3 are in colony forming units (CFUs), a well known standard of measure prescribed, e.g., by ASTM 6329-98.

[2] = system: Stachybotrys chartarum (ATCC 9182)
Description: as §8, §9, §10, §11, §12

[3] = by one of California's hazardous materials watchdog organizations; NIOSH does not draw that conclusion; cited from earlier work
[4] = ppm ai in agar, linear regression of radial growth
[5] = ppm ai in agar, totally inhibits fungal growth
[6] = nonwoven felt with 62-g/MSF ZPT, Week Number 2
[7] = nonwoven felt with 62-g/MSF ZPT, Week Number 4
[8] = nonwoven felt with 62-g/MSF ZPT, Week Number 6
[9] = nonwoven felt with 86-g/MSF ZPT, Week Number 2
[10] = nonwoven felt with 86-g/MSF ZPT, Week Number 4
[11] = nonwoven felt with 86-g/MSF ZPT, Week Number 6
[12] = nonwoven felt with 116-g/MSF ZPT, Week Number 2
[13] = nonwoven felt with 116-g/MSF ZPT, Week Number 4
[14] = nonwoven felt with 116-g/MSF ZPT, Week Number 6
[15] = nonwoven felt with 123-g/MSF ZPT, Week Number 2
[16] = nonwoven felt with 123-g/MSF ZPT, Week Number 4
[17] = nonwoven felt with 123-g/MSF ZPT, Week Number 6
[18] = concluded from Table 3 and Table 4
[19] = footnote a: extrapolation outside of the test concentration range

zinc pyrithione [Zn Pyrithione]
IC50 (ppm) Penicillium Funiculosum (Penicillium funiculosum; [4]): 8.0 ppm | MIC (ppm) Penicillium Funiculosum (Penicillium funiculosum; [5]): 16.2 ppm | IC50 (ppm) Cladosporium cladosporioides [1, 4]: ≤ 1.8^b ppm | MIC (ppm) Cladosporium cladosporioides [1, 5]: ≤ 15^b ppm | IC50 (ppm) Aspergillus niger (Aspergillus niger; ppm ai in agar): 9.2 ppm | MIC (ppm) Aspergillus niger (Aspergillus niger; [5]): 21.2 ppm | Other Mold colony forming units (other molds; [6]): 880 CFUs | Other Mold colony forming units (other molds; [7]): 3360 CFUs | Other Mold colony forming units (other molds; [8]): 19730 CFUs | Other Mold colony forming units (other molds; [9]): 530 CFUs | Other Mold colony forming units (other molds; [10]): 3450 CFUs | Other Mold colony forming units (other molds; [11]): 4100 CFUs | Other Mold colony forming units (other molds; [12]): 67 CFUs | Other Mold colony forming units (other molds; [13]): 125 CFUs | Other Mold colony forming units (other molds; [14]): 7540 CFUs | Other Mold colony forming units (other molds; [15]): 0 CFUs | Other Mold colony forming units (other molds; [16]): 54 CFUs | Other Mold colony forming units (other molds; [17]): 5380 CFUs | mold growth in the MSU test ([2]; biocide dose of 62-grams ZPT per MSF): mold DOES grow | amount of biocide at which mold resistance is optimum [2, 18]: ≥ 100 grams per MSF (per side) | amount of biocide at which significant mold resistance is imparted [2, 18]: ≥ 50 grams per MSF per side | Stachybotrys colony forming units [2, 6]: 0 CFUs | Stachybotrys colony forming units [2, 7]: 680 CFUs | Stachybotrys colony forming units [2, 8]: 3710 CFUs | Stachybotrys colony forming units [2, 9]: 0 CFUs | Stachybotrys colony forming units [2, 10]: 390 CFUs | Stachybotrys colony forming units [2, 11]: 1110 CFUs | Stachybotrys colony forming units [2, 12]: 0 CFUs | Stachybotrys colony forming units [2, 13]: 0 CFUs | Stachybotrys colony forming units [2, 14]: 0.2 CFUs | Stachybotrys colony forming units [2, 15]: 0 CFUs | Stachybotrys colony forming units [2, 16]: 0.4 CFUs | Stachybotrys colony forming units [2, 17]: 0 CFUs

CCCCCCCCCCCCCCCCCC[N+](C)(C)CCC[Si](OC)(OC)OC.[Cl-] [Microbe Shield, 3-trimethixysilylpropyldimethyloctadecyl ammonium chloride]
IC50 (ppm) Penicillium Funiculosum (Penicillium funiculosum; [19]): 670^a ppm | MIC (ppm) Penicillium Funiculosum (Penicillium funiculosum; [19]): 1289^a ppm | IC50 (ppm) Cladosporium cladosporioides [1, 19]: 2025^a ppm | MIC (ppm) Cladosporium cladosporioides [1, 19]: 5575^a ppm | MIC (ppm) Aspergillus niger (Aspergillus niger; [19]): 625^a ppm | IC50 (ppm) Aspergillus niger (Aspergillus niger; ppm ai in agar): 286 ppm

Oc1ccccc1-c1ccccc1 [OPP, ortho-Phenyl Phenol]
MIC (Penicillium funiculosum; Talaromyces funiculosus, read-out: MIC (ppm) Penicillium Funiculosum): ≤ 375 µg/mL | IC50 (ppm) Penicillium Funiculosum (Penicillium funiculosum; [4]): ≤ 212.6^b ppm | MIC ([1]; Cladosporium cladosporioides, read-out: MIC (ppm) Cladosporium cladosporioides): ≤ 375 µg/mL | IC50 (ppm) Cladosporium cladosporioides [1, 4]: ≤ 203.8^b ppm | MIC (Aspergillus niger; Aspergillus niger, read-out: MIC (ppm) Aspergillus niger): 84.5 µg/mL | IC50 (ppm) Aspergillus niger (Aspergillus niger; ppm ai in agar): 16.3 ppm | carcinogenicity rating [3]: human carcinogen
